The compounds below were run against T1, human orexin type 2 receptor (Homo sapiens, UniProt O43614) (assay: Measurement of orexin type 2 receptor agonist activity (calcium indicator fluorescence, CHO cells forcibly expressing human OX2 receptor)). Settings: compound at 3 μM; 0% = DMSO, 100% = orexin A (human) 10 nM.
T1 construct: expressed in transfected cells
T1 sequence (O43614 1-444): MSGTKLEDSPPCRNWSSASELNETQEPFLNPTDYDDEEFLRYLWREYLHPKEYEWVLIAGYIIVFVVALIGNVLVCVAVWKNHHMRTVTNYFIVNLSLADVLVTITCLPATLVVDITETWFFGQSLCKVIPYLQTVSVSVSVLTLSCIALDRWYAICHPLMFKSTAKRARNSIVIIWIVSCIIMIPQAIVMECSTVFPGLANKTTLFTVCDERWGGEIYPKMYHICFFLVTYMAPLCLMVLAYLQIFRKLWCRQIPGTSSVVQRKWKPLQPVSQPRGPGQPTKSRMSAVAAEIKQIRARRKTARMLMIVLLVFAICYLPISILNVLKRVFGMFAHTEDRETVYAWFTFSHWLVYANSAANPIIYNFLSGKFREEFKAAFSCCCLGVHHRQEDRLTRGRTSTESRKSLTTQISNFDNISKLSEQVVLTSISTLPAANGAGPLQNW
Format: cell-based
Summary of the method: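 Agonist response normalised between vehicle (0%) and orexin A at 10 nM final (100%), from kinetic Fluo-4 calcium signals recorded for about 2 min after compound addition. Cells: stable human OX2R CHO clone, dye-loaded 30 min at 37 °C plus 30 min at room temperature.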

| Compound | OX2R agonist activity (3 μM, %) [%] |
| --- | --- |
| Cc1cccc(-c2cccc(C[C@H]3[C@@H](NS(=O)(=O)C4CC4)[C@@H](F)CN3C(=O)N(C)C)c2F)c1 [Example 538, (2S,3R,4S)-3-[(cyclopropanesulfonyl)amino]-4-fluoro-2-[(2-fluoro-3′-methyl[1,1′-biphenyl]-3-yl)methyl]-N,N-dimethylpyrrolidine-1-carboxamide] | 106 |
| Cc1cccc(-c2cccc(C[C@H]3[C@@H](NS(=O)(=O)C4CC4)[C@@H](F)CN3C(=O)N3CCC3)c2F)c1 [Example 543, N-{(2S,3R,4S)-1-(azetidine-1-carbonyl)-4-fluoro-2-[(2-fluoro-3′-methyl[1,1′-biphenyl]-3-yl)methyl]pyrrolidin-3-yl}cyclopropanesulfonamide] | 99 |
| Cc1cccc(-c2cccc(C[C@H]3[C@@H](NS(=O)(=O)N(C)C)C(F)(F)CN3C(=O)C3CCO3)c2F)c1 (stereo partly drawn) [Example 432, N′-[(2S,3R)-4,4-difluoro-2-[(2-fluoro-3′-methyl[1,1′-biphenyl]-3-yl)methyl]-1-(oxetane-2-carbonyl)pyrrolidin-3-yl]-N,N-dimethylsulfuric diamide] | 95 |
| CCS(=O)(=O)N[C@@H]1[C@H](Cc2cccc(-c3ccccc3)c2F)N(C(=O)[C@H]2C[C@@H](F)C2)CC1(F)F [Example 383, N-[(2S,3R)-4,4-difluoro-2-[(2-fluoro[1,1′-biphenyl]-3-yl)methyl]-1-((1s,3R)-3-fluorocyclobutane-1-carbonyl)pyrrolidin-3-yl]ethanesulfonamide] | 94 |
| Cc1cccc(-c2cccc(C[C@H]3[C@@H](NS(C)(=O)=O)C(F)(F)CN3C(=O)C(C)(C)O)c2F)c1 [Example 25, N-[(2S,3R)-4,4-difluoro-2-[(2-fluoro-3′-methyl[1,1′-biphenyl]-3-yl)methyl]-1-(2-hydroxy-2-methylpropanoyl)pyrrolidin-3-yl]methanesulfonamide] | 108 |
| CS(=O)(=O)N[C@@H]1[C@H](Cc2cccc(-c3cccc(Cl)c3)c2F)N(C(=O)C2CCO2)CC1(F)F (stereo partly drawn) [Example 259, N-[(2S,3R)-2-[(3′-chloro-2-fluoro[1,1′-biphenyl]-3-yl)methyl]-4,4-difluoro-1-(oxetane-2-carbonyl)pyrrolidin-3-yl]methanesulfonamide] | 96 |
| CCS(=O)(=O)N[C@@H]1[C@H](Cc2cccc(-c3cc(F)cc(F)c3)c2F)N(C(=O)N(C)C)CC1(F)F [Example 282, (2S,3R)-3-[(ethanesulfonyl)amino]-4,4-difluoro-N,N-dimethyl-2-[(2,3′,5′-trifluoro[1,1′-biphenyl]-3-yl)methyl]pyrrolidine-1-carboxamide] | 96 |
| CC(C)C(=O)N1CC(F)(F)[C@H](NS(=O)(=O)C2CC2)[C@@H]1Cc1cccc(-c2cc(F)cc(F)c2)c1F [Example 166] | 98 |
| O=C(C1CC1)N1C[C@H](F)[C@H](NS(=O)(=O)C2CC2)[C@@H]1Cc1cccc(-c2cc(F)ccc2F)c1F [Example 379, N-{(2S,3R,4S)-1-(cyclopropanecarbonyl)-4-fluoro-2-[(2,2′,5′-trifluoro[1,1′-biphenyl]-3-yl)methyl]pyrrolidin-3-yl}cycloproapnesulfonamide] | 93 |
| CCS(=O)(=O)N[C@H]1[C@@H](F)CN(C(=O)C23CC(C2)C3)[C@H]1Cc1cccc(-c2cc(F)ccc2F)c1F [Example 306, N-{(2S,3R,4S)-1-(bicyclo[1.1.1]pentane-1-carbonyl)-4-fluoro-2-[(2,2′,5′-trifluoro[1,1′-biphenyl]-3-yl)methyl]pyrrolidin-3-yl}ethanesulfonamide] | 89 |
| CCS(=O)(=O)N[C@H]1[C@@H](F)CN(C(=O)C(C)(C)O)[C@H]1Cc1cccc(-c2cccc(F)c2F)c1F [Example 222, N-{(2S,3R,4S)-4-fluoro-1-(2-hydroxy-2-methylpropanoyl)-2-[(2,2′,3′-trifluoro[1,1′-biphenyl]-3-yl)methyl]pyrrolidin-3-yl}ethanesulfonamide] | 97 |
| CS(=O)(=O)N[C@@H]1[C@H](Cc2cccc(-c3ccccc3)c2F)N(C(=O)[C@H]2CCCO2)CC1(F)F [Example 73, N-{(2S,3R)-4,4-difluoro-2-[(2-fluoro[1,1′-biphenyl]-3-yl)methyl]-1-[(2R)-oxolane-2-carbonyl]pyrrolidin-3-yl}methanesulfonamide] | 104 |
| CCS(=O)(=O)N[C@H]1[C@@H](F)CN(C(=O)C2CCO2)[C@H]1Cc1cccc(-c2cc(C)ccc2F)c1F (stereo partly drawn) [Example 502, N-[(2S,3R,4S)-2-[(2,2′-difluoro-5′-methyl[1,1′-biphenyl]-3-yl)methyl]-4-fluoro-1-(oxetane-2-carbonyl)pyrrolidin-3-yl]ethanesulfonamide] | 96 |
| CCS(=O)(=O)N[C@@H]1[C@H](Cc2cccc(-c3cccc(C(F)F)c3)c2F)N(C(=O)C23CC(C2)C3)CC1(F)F [Example 509, N-[(2S,3R)-1-(bicyclo[1.1.1]pentane-1-carbonyl)-2-{[3′-(difluoromethyl)-2-fluoro[1,1′-biphenyl]-3-yl]methyl}-4,4-difluoropyrrolidin-3-yl]ethanesulfonamide] | 85 |
| O=C(C1CC1)N1C[C@H](F)[C@H](NS(=O)(=O)C2CC2)[C@@H]1Cc1cccc(-c2cc(F)cc(F)c2)c1F [Example 373, N-{(2S,3R,4S)-1-(cyclopropanecarbonyl)-4-fluoro-2-[(2,3′,5′-trifluoro[1,1′-biphenyl]-3-yl)methyl]pyrrolidin-3-yl}cyclopropanesulfonamide] | 88 |
| CC(C)C(=O)N1CC(F)(F)[C@H](NS(C)(=O)=O)[C@@H]1Cc1cccc(-c2cccc(F)c2)c1F [Example 98, N-[(2S,3R)-2-[(2,3′-difluoro[1,1′-biphenyl]-3-yl)methyl]-4,4-difluoro-1-(2-methylpropanoyl)pyrrolidin-3-yl]methanesulfonamide] | 91 |
| Cc1cc(F)cc(-c2cccc(C[C@H]3[C@@H](NS(=O)(=O)N(C)C)C(F)(F)CN3C(=O)N(C)C)c2F)c1 [Example 526, (2S,3R)-2-[(2,3′-difluoro-5′-methyl[1,1′-biphenyl]-3-yl)methyl]-3-[(dimethyslulfamoyl)amino]-4,4-difluoro-N,N-dimethylpyrrolidine-1-carboxamide] | 83 |
| CCS(=O)(=O)N[C@@H]1[C@H](Cc2cccc(-c3cc(C)cc(F)c3)c2F)N(C(=O)N2CCC2)CC1(F)F [Example 444, N-{(2S,3R)-1-(azetidine-1-carbonyl)-2-[(2,3′-difluoro-5′-methyl[1,1′-biphenyl]-3-yl)methyl]-4,4-difluoropyrrolidin-3-yl}ethanesulfonamide] | 98 |
| Cc1cccc(-c2cccc(C[C@H]3[C@@H](NS(=O)(=O)C4CC4)C(F)(F)CN3C(=O)[C@H]3CCO3)c2F)c1F [Example 530, N-{(2S,3R)-2-[(2,2′-difluoro-3′-methyl[1,1′-biphenyl]-3-yl)methyl]-4,4-difluoro-1-[(2R)-oxetane-2-carbonyl]pyrrolidin-3-yl}cyclopropanesulfonamide] | 94 |
| Cc1cccc(-c2cccc(C[C@H]3[C@@H](NS(=O)(=O)C4CC4)[C@@H](F)CN3C(=O)C3CCO3)c2F)c1 (stereo partly drawn) [Example 489, N-[(2S,3R,4S)-4-fluoro-2-[(2-fluoro-3′-methyl[1,1′-biphenyl]-3-yl)methyl]-1-(oxetane-2-carbonyl)pyrrolidin-3-yl]cyclopropanesulfonamide] | 92 |
| CC(C)C(=O)N1C[C@H](F)[C@H](NS(=O)(=O)C2CC2)[C@@H]1Cc1cccc(-c2cccc(F)c2)c1F [Example 382, N-[(2S,3R,4S)-2-[(2,3′-difluoro[1,1′-biphenyl]-3-yl)methyl]-4-fluoro-1-(2-methylpropanoyl)pyrrolidin-3-yl]cyclopropanesulfonamide] | 102 |
| CS(=O)(=O)N[C@@H]1[C@H](Cc2cccc(-c3cc(F)cc(Cl)c3)c2F)N(C(=O)C2CCO2)CC1(F)F (stereo partly drawn) [Example 265, N-[(2S,3R)-2-[(3′-chloro-2,5′-difluoro[1,1′-biphenyl]-3-yl)methyl]-4,4-difluoro-1-(oxetane-2-carbonyl)pyrrolidin-3-yl]methanesulfonamide] | 96 |
| O=C(C1CCO1)N1C[C@H](F)[C@H](NS(=O)(=O)C2CC2)[C@@H]1Cc1cccc(-c2cc(F)ccc2F)c1F (stereo partly drawn) [Example 481, N-{(2S,3R,4S)-4-fluoro-1-(oxetane-2-carbonyl)-2-[(2,2′,5′-trifluoro[1,1′-biphenyl]-3-yl)methyl]pyrrolidin-3-yl}cyclopropanesulfonamide] | 104 |
| CCS(=O)(=O)N[C@@H]1[C@H](Cc2cccc(-c3cccc(OC)c3)c2F)N(C(=O)C23CC(C2)C3)CC1(F)F [Example 510, N-{(2S,3R)-1-(bicyclo[1.1.1]pentane-1-carbonyl)-4,4-difluoro-2-[(2-fluoro-3′-methoxy[1,1′-biphenyl]-3-yl)methyl]pyrrolidin-3-yl}ethanesulfonamdie] | 97 |

From patent US20230040770A1, “HETEROCYCLIC COMPOUND AND USE THEREOF” (TAKEDA PHARMACEUTICAL COMPANY LIMITED, priority 2019, published 2023)
